The values that follow come from article PMC9143043, “Synthesis and Biological Evaluation of 5′-O-Fatty Acyl Ester Derivatives of 3′-Fluoro-2′,3′-dideoxythymidine as Potential Anti-HIV Microbicides” (Molecules, 2022).

Series [1] relates to HIV-infected T4 lymphocytes. Further details: method as in PMID 9191015. To be noted: read-out: EC50 against HIV-infected T4 lymphocytes; cited from earlier work.
The test system of series [2] is CCRF-CEM cells. Description: Real-time fluorescence microscopy in live cells. Type of series: cell-based, human. To be noted: 10 µM, 1 h. On the procedure: Cells incubated with 10 µM of DMSO, FAM, 23 and 24 for 1 h were used for real time fluorescence microscopy using transmitted light microscopy equipped with a differential-interference contrast method and an Achroplan 40× objective.
The products were purified on a Phenomenex®Gemini 10 µm ODS reversed-phase column (2.1 × 25 cm) with a Hitachi HPLC system using a gradient increment in the acetonitrile (0.1%TFA) concentration from 0 to 100% in 45 min at a constant flow rate of 17 mL/min. The purity of the compounds was confirmed by using an analytical Hitachi analytical HPLC system on a C18 column (Grace Allsphere ODS 2–3 µ, 150 × 4.6 mm) using a gradient system (water:acetonitrile 30:70 v/v) at a constant flow rate of 1 mL/min with a UV detection at 265 nm. The chemical structures of the final products were characterized by nuclear magnetic resonance spectrometry (^1H NMR and ^13C NMR) determined on a Bruker NMR spectrometer (400 MHz, Daltonik, Bremen, Germany) and confirmed by a high-resolution PE Applied Biosystems Mariner API time-of-flight electrospray mass spectrometer (Waltham, MA, USA). Chemical shifts are reported in parts per millions (ppm). For cellular uptake studies, cells were analyzed by flow cytometry (FACSCalibur: Becton Dickinson, San Jose, CA, USA) using the FITC channel and CellQuest software 7.5.3 (Becton Dickinson, San Jose, CA, USA). […]

For series [3], the system named is CCRF-CEM cells. In words: Cell viability study (trypan blue, Cellometer). The format is cell-based, human. As to conditions: 10 µM, 24 h incubation. On the procedure: Cell viability study was performed to analyze the effect of FAM, 23, and 24 on the live cells. The CCRF-CEM cells were incubated with 10 µM of the compounds and mixed with trypan blue (0.1%) to color the dead cells. The percentage of viability was calculated by using Cellometer Auto T.4 (Nexcelom Bioscience). It was observed that at least 80% of the cells were viable in the presence of the compounds in a 24 h incubation period (Supporting Materials, Figure S1).
Human T lymphoblastoid cells (CCRF-CEM, ATCC No. CCL-119) were grown to 70% confluency in a culture medium. CCRF-CEM cells were incubated with 10 µM of the compounds and mixed with trypan blue (0.1%) to color the dead cells. The percentage of viability was calculated by using a Cellometer Auto T.4 (Nexcelom Bioscience). The cell viability against the vaginal cells (VK-2/E6E7) was conducted according to the previously reported procedure. The effect of conjugates on the sperm viability and mobility was evaluated as described previously.

In the case of `CCSCCCCCCCCCCCC(=O)O` [12-thioethyldodecanoic acid], the EC50 (as a rule, the concentration giving half of the maximal effect) in series [1] was 9.4 µM. As for 5(6)-carboxyfluorescein [FAM], the “cell fluorescence (real time fluorescence microscopy)” value with CCRF-CEM cells [2] is reported as “no significant fluorescence”. Further, the viable cells entry in the series with CCRF-CEM cells [3] was “at least 80%”.
